Experimental data published in patent publication EP1371368A1, “Salvianolic acid components as lipase inhibitors” (N.V. Nutricia, priority 2002, dated 2003).

Target: T1, porcine pancreas lipase (Sus scrofa, UniProt P00591)
T1 construct: purchased ICN Biomedicals BV
T1 sequence (P00591 1-450): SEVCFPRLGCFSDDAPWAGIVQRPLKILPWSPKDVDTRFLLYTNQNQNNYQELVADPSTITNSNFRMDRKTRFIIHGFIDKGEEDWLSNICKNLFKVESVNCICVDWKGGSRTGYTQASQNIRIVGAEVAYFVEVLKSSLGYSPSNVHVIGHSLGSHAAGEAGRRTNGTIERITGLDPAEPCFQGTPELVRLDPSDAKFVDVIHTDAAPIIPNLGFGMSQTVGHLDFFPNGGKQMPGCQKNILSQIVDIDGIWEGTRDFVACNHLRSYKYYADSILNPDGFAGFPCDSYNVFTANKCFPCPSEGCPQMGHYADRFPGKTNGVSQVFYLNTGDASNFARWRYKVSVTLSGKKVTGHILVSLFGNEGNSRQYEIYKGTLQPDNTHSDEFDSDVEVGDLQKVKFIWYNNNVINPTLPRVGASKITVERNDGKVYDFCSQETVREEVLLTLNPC
Assay: In vitro lipase inhibitory activity (hydrolysis of p-nitrophenyl caprylate to p-nitrophenol, absorption at 405 nm)
Type: biochemical
Conditions: inhibition of lipase activity compared to control at the final concentration printed in the same row
Experimental: Lipase activity was determined by measuring the rate of hydrolysis of p-nitrophenyl caprylate to p-nitrophenol (yellow) and caprylate.
Phosphate buffer A (200 mM phosphate buffer with a pH 7) was prepared by mixing: 488 ml 200 mM Na2HPO4·H2O (17.5 gram/500 ml) with 296 ml 200 mM NaH2PO4·H2O (13.8 gram/500 ml) followed by adjustment of the pH. Substrate solution was prepared freshly by mixing: • a) 500 ml buffer B (200 mM phosphate buffer A pH 7 containing 0.1% (w/v) Triton x-100) and • b) 5.3 ml stock solution of the substrate (250 mM p-nitrophenyl caprylaat (pnp) in acetonitrile). […] The final concentration of pnp in the substrate solution is thus 2.66 mM pnp. Subsequently, the substrate solution was placed in an ultrasonic bath for exactly 3 minutes. […]
Samples were prepared by adding 40 mg of commercial extracts of Salvia material to 4 ml DMSO, incubating at room temperature for 15 minutes, followed by centrifugation to remove the insolubles. […] For each sample the capacity to inhibit lipase activity was determined.
25 µl of sample (25 µl DMSO for control) was added to 150µl substrate solution and incubated for 10 minutes at 37 °C. Subsequently 25 µl lipase solution was added and the p-nitrophenol formation was determined during a period of 10 minutes by measuring the absorption increase at 405 nm. […]

For `CCCCCCCCCCC[C@@H](C[C@@H]1OC(=O)[C@H]1CCCCCC)OC(=O)[C@H](CC(C)C)NC=O` [Orlistat], the “Inhibition (%)” value was 50%.
